# Reference: ChEMBL document CHEMBL1127137, “3-phosphono-1-carba-1-dethiacephalosporins as antibacterial agents” (1993)
# Assays:
# Type in all cases: functional
# Escherichia coli = assay: Antimicrobial activity against gram negative Escherichia coli (EC14) was determined
# Staphylococcus aureus [1] = assay: Antimicrobial activity against gram positive Staphylococcus aureus (V41) was determined
# Staphylococcus aureus [2] = assay: Antimicrobial activity against gram positive Staphylococcus aureus (X1.1) was determined
# Streptococcus pneumoniae = assay: Antimicrobial activity against gram positive Streptococcus pneumoniae (PARK) was determined
# [3] = system: Staphylococcus epidermidis; assay: Antimicrobial activity against gram positive Staphylococcus epidermidis (222) was determined
Structure (SMILES),MIC (Escherichia coli) [mg/L],MIC (Staphylococcus aureus [1]) [mg/L],MIC (Staphylococcus aureus [2]) [mg/L],MIC (Streptococcus pneumoniae) [mg/L],MIC [3] [mg/L]
O=C(COc1ccccc1)N[C@@H]1C(=O)N2C(C(=O)O)=C(OP(=O)(O)O)CC[C@H]12,> 128,> 128,64,> 128,> 128
CCOP(=O)(OCC)OC1=C(C(=O)[O-])N2C(=O)[C@@H](NC(=O)COc3ccccc3)[C@H]2CC1.[Na+],64,2,0.25,0.25,1
COP(=O)(OC)OC1=C(C(=O)[O-])N2C(=O)[C@@H](NC(=O)COc3ccccc3)[C@H]2CC1.[Na+],64,2,0.5,0.5,1
CCCCOP(=O)(OCCCC)OC1=C(C(=O)[O-])N2C(=O)[C@@H](NC(=O)COc3ccccc3)[C@H]2CC1.[Na+],> 128,64,0.5,0.03,1
N[C@@H](C(=O)N[C@@H]1C(=O)N2C(C(=O)O)=C(Cl)CC[C@H]12)c1ccccc1 [LORACARBEF ANHYDROUS],0.05,4,2,1,2
CC1(C)S[C@@H]2[C@H](NC(=O)COc3ccccc3)C(=O)N2[C@H]1C(=O)O [PENICILLIN V],128,16,0.06,0.06,0.125
